This is an account of results in ChEMBL document CHEMBL1131600 (J Med Chem, 1998).

Format in all cases: functional, organism-based
Test [1] deals with Plasmodium falciparum. The test is described as follows: In vitro antimalarial activity against chloroquine-sensitive Plasmodium falciparum NF54 in C4alpha-alkylated trioxanes.
Test [2] concerns Plasmodium falciparum. Description: In vitro antimalarial activity against chloroquine-sensitive Plasmodium falciparum NF54 in C4beta-stannylmethyl trioxanes.
In test [3] the test system is Plasmodium falciparum. Description: In vitro antimalarial activity against chloroquine-sensitive Plasmodium falciparum NF54.

Broadly, the IC50 is the concentration at which inhibition is half-maximal. `CO[C@H]1O[C@@]2(C)OOC13[C@H](CCO)CCC[C@@H]3CC2C[Si](C)(C)C` (some centres undefined): the figures for the IC50 in the test on Plasmodium falciparum [1] and in the test with Plasmodium falciparum [2] (Plasmodium falciparum) were more than 2500 nM and 240 nM, respectively.
Consider `CO[C@H]1O[C@@]2(C)OOC13CCCC[C@@H]3C[C@@H]2COCc1ccc(F)cc1`, for which half-maximal inhibition in the test with Plasmodium falciparum [3] (Plasmodium falciparum) (IC50) was put at 19 nM.
Consider “((6R,9S,12S)-12-Methoxy-9-methyl-10,11,13-trioxa-tricyclo[7.2.2.01,6]tridec-8-ylmethyl)-triphenyl-stannane”, for which the IC50 with Plasmodium falciparum [3] is more than 2500 nM.
For `CO[C@H]1O[C@@]2(C)OOC13CCCC[C@@H]3CC2c1ccccc1` (some centres undefined), the IC50 in the test on Plasmodium falciparum [1] is more than 2500 nM; in the test on Plasmodium falciparum [2] (Plasmodium falciparum) it was 2000 nM.
In the case of `CO[C@H]1O[C@@]2(C)OOC13CCCC[C@@H]3CC2Cc1ccc(COCc2ccc(F)cc2)cc1` (some centres undefined), in the test with Plasmodium falciparum [3] (Plasmodium falciparum), it took 240 nM to reach half-maximal inhibition (IC50).
Consider `CO[C@H]1O[C@@]2(C)OOC13[C@H](CCO)CCC[C@@H]3C[C@@H]2C`, for which, in the test with Plasmodium falciparum [3] (Plasmodium falciparum), the IC50 came out at 7.7 nM.
The same measure, in the same setting: in the case of `CO[C@H]1O[C@@]2(C)OOC13CCCC[C@@H]3C[C@@H]2Cc1ccc(CO)cc1` it was 600 nM.
As to `CO[C@H]1O[C@@]2(C)OOC13CCCC[C@@H]3CC2Cc1ccc(CO)cc1` (some centres undefined), the IC50 was more than 2500 nM in the test on Plasmodium falciparum [1] and 600 nM in the test on Plasmodium falciparum [2] (Plasmodium falciparum).
In the test on Plasmodium falciparum [3] (Plasmodium falciparum), `CO[C@H]1O[C@]2(C)CC[C@H]3CCC[C@@H](CCOCc4ccc(F)cc4)C31OO2` yielded an IC50 of 31 nM.
Regarding `CO[C@H]1O[C@@]2(C)OOC13[C@H](CCO)CCC[C@@H]3CC2C` (some centres undefined), the IC50 with Plasmodium falciparum [1] amounted to 1300 nM; in the test with Plasmodium falciparum [2] (Plasmodium falciparum), 7.7 nM.
Compound “2-((2S,6R,9S,12S)-12-Methoxy-9-methyl-8-trimethylstannanylmethyl-10,11,13-trioxa-tricyclo[7.2.2.0 1,6 ]tridec-2-yl)-ethanol” returned an IC50 with Plasmodium falciparum [2] of more than 2500 nM.
Regarding `CO[C@H]1O[C@@]2(C)OOC13CCCC[C@@H]3C[C@@H]2CO`, in the test on Plasmodium falciparum [3] (Plasmodium falciparum), half-maximal inhibition (IC50) was put at 230 nM.
For `CO[C@H]1O[C@@]2(C)OOC13[C@H](CCOP(=O)(Oc1ccccc1)Oc1ccccc1)CCC[C@@H]3C[C@@H]2C`, the IC50 in the test on Plasmodium falciparum [3] (Plasmodium falciparum) turned out to be 6.9 nM.
Same read-out and setting: as for `CO[C@H]1O[C@]2(C)CC[C@H]3CCC[C@@H](CCO)C31OO2`, the figure is 120 nM.
For the compound `CO[C@H]1O[C@@]2(C)OOC13CCCC[C@@H]3CC2CO` (some centres undefined), the half-inhibitory concentration (IC50) in the test on Plasmodium falciparum [1] was more than 2500 nM; with Plasmodium falciparum [2] (Plasmodium falciparum), 230 nM.
As for `CO[C@H]1O[C@@]2(C)OOC13[C@H](CCOCc1ccccc1)CCC[C@@H]3C[C@@H]2C`, the IC50 in the test on Plasmodium falciparum [3] (Plasmodium falciparum) was determined as 11 nM.
Still for that read-out and setting: in the case of `CO[C@H]1O[C@@]2(C)OOC13[C@H](CCOCc1ccc(F)cc1)CCC[C@@H]3C[C@@H]2C` it was 13 nM.
Take `CO[C@H]1O[C@@]2(C)OOC13CCCC[C@@H]3CC2Cc1ccccc1` (some centres undefined): the IC50 is more than 2500 nM with Plasmodium falciparum [1] and 310 nM in the test with Plasmodium falciparum [2] (Plasmodium falciparum).
`CO[C@H]1O[C@]2(C)CC[C@H]3CCC[C@@H](CCOCc4ccccc4)C31OO2` yielded an IC50 in the test on Plasmodium falciparum [3] (Plasmodium falciparum) of 25 nM.
For the compound “Tributyl-((6R,9S,12S)-12-methoxy-9-methyl-10,11,13-trioxa-tricyclo[7.2.2.01,6]tridec-8-ylmethyl)-stannane”, in the test on Plasmodium falciparum [3], the IC50 is more than 2500 nM.
With `CO[C@H]1O[C@@]2(C)OOC13[C@H](CCO)CCC[C@@H]3CC2Cc1ccccc1` (some centres undefined), the IC50 with Plasmodium falciparum [1] was 1700 nM; in the test with Plasmodium falciparum [2] (Plasmodium falciparum), 8.3 nM.
“((6R,9S,12S)-12-Methoxy-9-methyl-10,11,13-trioxa-tricyclo[7.2.2.01,6]tridec-8-ylmethyl)-trimethyl-stannane” showed an IC50 in the test with Plasmodium falciparum [3] of more than 2500 nM.
